Test results from US20200239530A1, “COMPOUNDS AND METHODS OF MODULATING PROTEIN DEGRADATION” (Vividion Therapeutics, Inc., priority 2017, published 2020).

Experiments:
Experiment in all cases: Cysteine liganding, probe competition
Type in all cases: binding
[1] = biological target: T1, ATP6V1A V-type proton ATPase catalytic subunit A (Homo sapiens, UniProt P38606); details: for Liganded: ATP6V1A Res# 277, uniprot P38606
T1 construct: 200 μL of lysate containing 5 mg/ml proteome was treated with 2 μL of 100× compound stock; endogenous in cells
T1 sequence (P38606 whole entry): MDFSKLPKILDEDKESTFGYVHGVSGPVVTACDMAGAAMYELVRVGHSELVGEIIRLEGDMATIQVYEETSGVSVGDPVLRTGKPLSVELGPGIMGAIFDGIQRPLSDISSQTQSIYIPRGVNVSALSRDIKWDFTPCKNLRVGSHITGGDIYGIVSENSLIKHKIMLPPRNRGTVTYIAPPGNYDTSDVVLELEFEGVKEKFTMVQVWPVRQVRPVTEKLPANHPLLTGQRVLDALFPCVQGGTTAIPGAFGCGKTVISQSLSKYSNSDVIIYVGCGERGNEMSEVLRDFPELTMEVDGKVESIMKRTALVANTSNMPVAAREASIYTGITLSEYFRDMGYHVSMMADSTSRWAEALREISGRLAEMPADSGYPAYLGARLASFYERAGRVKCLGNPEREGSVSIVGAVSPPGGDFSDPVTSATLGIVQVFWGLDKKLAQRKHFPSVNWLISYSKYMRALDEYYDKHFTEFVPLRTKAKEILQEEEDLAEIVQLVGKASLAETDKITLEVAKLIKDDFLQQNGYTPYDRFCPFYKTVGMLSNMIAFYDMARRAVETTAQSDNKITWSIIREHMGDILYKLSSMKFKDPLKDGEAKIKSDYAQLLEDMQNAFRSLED
Method in brief: (§1)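 Read-out is loss of desthiobiotin iodoacetamide labelling at cysteines, measured on streptavidin-enriched tryptic peptides. Compound preincubation ran 1 hr at 25° C in PBS lysate holding 5 mg/ml proteome before the probe was added.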

[2] = biological target: T2, CDK17 Cyclin-dependent kinase 17 (Homo sapiens, UniProt Q00537); details: for Liganded: CDK17 Res# 233, uniprot Q00537
T2 construct: 200 μL of lysate containing 5 mg/ml proteome was treated with 2 μL of 100× compound stock; endogenous in cells
T2 sequence (Q00537 whole entry): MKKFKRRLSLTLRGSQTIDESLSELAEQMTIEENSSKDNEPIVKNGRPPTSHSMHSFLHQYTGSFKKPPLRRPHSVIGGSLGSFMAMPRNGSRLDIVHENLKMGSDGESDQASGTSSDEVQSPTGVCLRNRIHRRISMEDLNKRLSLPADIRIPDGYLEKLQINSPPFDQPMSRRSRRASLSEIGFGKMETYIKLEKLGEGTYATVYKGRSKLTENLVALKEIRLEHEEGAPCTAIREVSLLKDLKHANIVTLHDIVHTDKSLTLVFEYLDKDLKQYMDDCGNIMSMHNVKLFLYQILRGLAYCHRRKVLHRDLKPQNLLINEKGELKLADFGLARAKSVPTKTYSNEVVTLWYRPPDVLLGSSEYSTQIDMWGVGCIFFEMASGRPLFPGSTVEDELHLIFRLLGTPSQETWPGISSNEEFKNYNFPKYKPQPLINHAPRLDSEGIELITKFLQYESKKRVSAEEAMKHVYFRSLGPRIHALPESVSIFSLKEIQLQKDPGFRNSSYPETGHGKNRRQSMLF
Method in brief: as §1

[3] = biological target: T3, HIST1H3J Histone H3.1 (Homo sapiens, UniProt P68431); details: for Liganded: HIST1H3J Res# 111, uniprot P68431
T3 construct: Cells were resuspended in cold PBS on ice and sonicated with a probe sonicator to achieve lysis; endogenous in cells
Method in brief: as §1

[4] = biological target: T4, L2HGDH L-2-hydroxyglutarate dehydrogenase, mitochondrial (Homo sapiens, UniProt Q9H9P8)
T4 construct: Cells were resuspended in cold PBS on ice and sonicated with a probe sonicator to achieve lysis; endogenous in cells
T4 sequence (Q9H9P8 52-463): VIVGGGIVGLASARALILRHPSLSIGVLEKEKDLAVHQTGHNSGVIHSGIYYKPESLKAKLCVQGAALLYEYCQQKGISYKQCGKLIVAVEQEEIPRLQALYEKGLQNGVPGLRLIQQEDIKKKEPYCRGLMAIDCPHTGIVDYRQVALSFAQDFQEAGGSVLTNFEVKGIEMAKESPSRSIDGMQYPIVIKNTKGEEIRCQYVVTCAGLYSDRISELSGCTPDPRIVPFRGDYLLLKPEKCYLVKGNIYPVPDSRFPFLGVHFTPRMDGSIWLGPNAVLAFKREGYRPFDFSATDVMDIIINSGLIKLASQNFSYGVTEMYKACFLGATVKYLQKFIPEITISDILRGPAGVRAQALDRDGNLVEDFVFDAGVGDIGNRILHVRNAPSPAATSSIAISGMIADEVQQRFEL
Method in brief: as §1

[5] = biological target: T5, TAPBP Tapasin (Homo sapiens, UniProt O15533)
T5 construct: Cells were resuspended in cold PBS on ice and sonicated with a probe sonicator to achieve lysis; endogenous in cells
T5 sequence (O15533 21-448): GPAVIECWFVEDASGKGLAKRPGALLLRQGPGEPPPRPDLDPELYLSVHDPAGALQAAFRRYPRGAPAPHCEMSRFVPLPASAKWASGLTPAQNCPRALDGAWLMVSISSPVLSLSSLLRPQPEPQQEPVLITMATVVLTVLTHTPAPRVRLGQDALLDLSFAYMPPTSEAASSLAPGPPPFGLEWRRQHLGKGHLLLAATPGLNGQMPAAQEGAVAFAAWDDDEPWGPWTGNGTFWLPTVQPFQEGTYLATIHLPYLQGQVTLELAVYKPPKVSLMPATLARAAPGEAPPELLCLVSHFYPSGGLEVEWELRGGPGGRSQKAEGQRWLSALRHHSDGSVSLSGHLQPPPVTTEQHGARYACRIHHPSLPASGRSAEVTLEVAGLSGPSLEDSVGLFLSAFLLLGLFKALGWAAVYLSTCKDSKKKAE
Method in brief: as §1

For `COc1ccc2c(c1)CCCN2C(=O)CCl` [KB02], the Liganded [1] was “YES”, the Liganded [2] was “YES” and the Liganded [3] was “YES”. For the same compound, the Liganded ([4]; L2HGDH Res# 187, uniprot Q9H9P8) was “YES” and the Liganded ([5]; TAPBP Res# 440, uniprot O15533) was “YES”.
`O=C(CCl)Nc1cc(C(F)(F)F)cc(C(F)(F)F)c1` [KBO3] was tested, and the Liganded [1] was “YES”, the “100 Max” value ([1]; uniprot P38606) was 27.98 and the 100 ave ([1]; uniprot P38606) was 18.165. For the same compound, the “500 Max” value ([1]; uniprot P38606) was 76.55, the 500 ave ([1]; uniprot P38606) was 69.985 and the Liganded [2] was “YES”. The “100 Max” value ([2]; uniprot Q00537) was 50.67, the 100 ave ([2]; uniprot Q00537) was 28.2075 and the 500 ave ([2]; uniprot Q00537) was 79.225. For the same compound, the “500 Max” value ([2]; uniprot Q00537, in % (unit assumed)) was 80.44, the Liganded [3] was “YES” and the 100 ave ([3]; uniprot P68431) was 22.28. The “500 Max” value ([3]; uniprot P68431) was 79.39, the 500 ave ([3]; uniprot P68431) was 79.39 and the “100 Max” value ([3]; uniprot P68431, in % (unit assumed)) was 50.87. The “100 Max” value ([4]; uniprot Q9H9P8) was 39.03, the 100 ave ([4]; uniprot Q9H9P8) was 26.9925 and the “500 Max” value ([4]; uniprot Q9H9P8) was 70.21. The 500 ave ([4]; uniprot Q9H9P8) was 67.435, the “100 Max” value ([5]; uniprot O15533) was 31.4264 and the 100 ave ([5]; uniprot O15533) was 28.54. For the same compound, the “500 Max” value ([5]; uniprot O15533) was 68.7451 and the 500 ave ([5]; uniprot O15533) was 68.7451.
